# US6566368B2, “Apomorphine-containing dosage form for ameliorating male erectile dysfunction” (Pentech Pharmaceuticals, Inc., priority 1994, dated 2003)
# Like-named read-outs stand apart in the source and are kept apart here.
# Tests used:
# [1] = cited from earlier work
# clinical = details: male, human, in vivo; for clearance: Cl
# [2] = system: patients with psychogenic impotence; test: Pilot Study #3: aqueous intranasal spray (1.25 mg per puff), […] erectile response, adverse effects; type: in vivo, human
# Source text: The first patient was an anxious person who had been experiencing erectile dysfunction for two years.
# [3] = system: men with psychogenic male erectile dysfunction (MED); test: Pilot Study #6, third phase: home use, reported success of intercourse (Sexual Function questionnaire); type: in vivo, human; details: 4 or 6 mg APO sublingual tablets
# [4] = system: patients with psychogenic impotence
# [5] = in vivo; for Vd (SS) / Vd (beta): male, human
# [6] = system: patients with psychogenic impotence; details: for Mean (SE) erectile function / Percent (SE) successful erectile function (score at least 16): N 12
# [7] = system: men with psychogenic male erectile dysfunction (MED); test: Pilot Study #6: safety and tolerance of escalating APO doses (adverse events, serum chemistry, vital signs)
# Experimental: A clinical study of patient tolerance of escalating doses in sublingual tablet administration of APO for the treatment of psychogenic male erectile dysfunction was performed.
# In the second phase, subjects returned to the clinic for four visits, each visit one week apart. Subjects received one sublingual administration of either placebo, or 4, 6 and 8 mg APO at each visit. Doses of APO were administered in ascending order with the placebo being randomly assigned for use at one of the four visits. The procedures performed before and after drug administration were the same as those in the first phase.
# Fifty males with psychogenic MED were enrolled in this three phase trial. The first aim of this study was to determine the safety and tolerance of APO in the treatment of MED.
# [8] = system: non-vasculogenic impotent patients; test: Dose Evaluation Study: clinical response to sublingual apomorphine tablets before intercourse; details: for Positive Responses % / Positive Responses No.: 20 days
# [9] = Durif, F. et al., s.l., 7 × 3 mg tablets, 0.3 mg/kg, 7 subjects
# [10] = Durif, F. et al., s.l., 14 × 3 mg tablets, 0.6 mg/kg, 7 subjects
# [11] = Gancher, S. T., et al., s.c., 0.02 mg/kg, 5 subjects
# [12] = Gancher, S. T., et al., s.l., 3 × 6 mg tablets, 0.25 mg/kg, 5 subjects
# [13] = Montastruc, J. L., et al., s.c., 0.04 mg/kg, 9 subjects
# [14] = Montastruc, J. L., et al., s.l., 10 × 3 mg tablets, 0.42 mg/kg, 9 subjects
# [15] = intranasal 2.5 mg, Patient No. 2
# [16] = liquid apomorphine sublingual, 10 mg and 20 mg, ten evaluable patients
# [17] = liquid sublingual 10 mg and 20 mg
# [18] = sublingual tablets 3, 4, 5 mg (Table I), twelve patients
# [19] = 3 mg tablet 20 minutes prior to intercourse, 5 patients
# [20] = 4 mg tablet 20 minutes prior to intercourse, 5 patients
# [21] = 5 mg tablet 20 minutes prior to intercourse, 10 patients
# [22] = 6 mg tablet 20 minutes prior to intercourse, 10 patients
# [23] = 7 mg tablet 20 minutes prior to intercourse, 10 patients
# [24] = 8 mg tablet 20 minutes prior to intercourse, 10 patients
# [25] = 10 mg tablet 20 minutes prior to intercourse, 10 patients
smiles,measurement,setting,value
CN1CCc2cccc3c2[C@H]1Cc1ccc(O)c(O)c1-3 [apomorphine],Cmax,"[1]; Durif, F. et al., Clin. Neuropharm. 16:157-166, s.l., 7 × 3 mg tablets, 0.3 mg/kg, 7 subjects",7.5 ng/mL
same,AUC,[1]; [9],929 ng·min/mL
same,Cl,[1]; [9],35 mL/min/kg
same,MRT,[1]; [9],128 min
same,Tmax,[1]; [9],31.5 min
same,Vd,[1]; [9],3.4 L/kg
same,AUC,[1]; [10],"2,277 min*ng/ml"
same,Cl,[1]; [10],30 mL/min/kg
same,Cmax,[1]; [10],22.7 ng/mL
same,MRT,[1]; [10],125 min
same,Tmax,[1]; [10],38.3 min
same,Vd,[1]; [10],2.8 L/kg
same,Cmax,"[1]; Gancher, S. T., et al., Movement Disorders 6:212-216 (1991), s.l., 3 × 6 mg tablets, 0.25 mg/kg, 5 subjects",14.3 ng/mL
same,Vd,"[1]; Gancher, S. T., et al., i.v., […], 5 subjects, *Calculated",0.043* l/kg
same,Tmax,"[1]; Gancher, S. T., et al., i.v., […], 5 subjects",6.7 min
same,AUC,[1]; [11],592.7 ng·min/mL
same,Cmax,[1]; [11],19.36 ng/mL
same,Tmax,[1]; [11],6.5 min
same,AUC,[1]; [12],"1,057 min*ng/ml"
same,Tmax,[1]; [12],45 min
same,Cmax,"[1]; Montastruc, J. L., et al., Clin. Neuropharmacol. 14:432-437 (1991), s.l., 10 × 3 mg tablets, 0.42 mg/kg, 9 subjects",28 ng/mL
same,AUC,[1]; [13],837 ng·min/mL
same,Cmax,[1]; [13],26 ng/mL
same,Tmax,[1]; [13],18 min
same,AUC,[1]; [14],"1,882 min*ng/ml"
same,Tmax,[1]; [14],41 min
same,Vd,clinical; 0.06 mg/kg,2.33 L/kg
same,clearance,"clinical; iv, 0.01 mg/kg",72.8 mL/min/kg
same,Vd,"clinical; iv, 0.01 mg/kg",3.35 L/kg
same,AUC(0-inf),"clinical; iv, 1 mg, AUC (0-inf)",3.45 ng·h/mL
same,clearance,"clinical; iv, 1 mg",5100 mL/min
same,Cmax,"clinical; iv, Cmax",8.36 ng/mL
same,adverse effects,[2]; [15],major hemodynamic adverse effects
same,blood pressure (hypotension),[2]; [15],70/50
same,total yawns,"[2]; intranasal 2.5 mg, Patient No. 2, ten minutes post-dosing",five
same,erectile response,[2]; intranasal administration,effective in eliciting an erection
same,score on both erotic and neutral video segments,"[2]; intranasal spray 2.5 mg, 3.75 mg, first patient, categorized as a failure",less than sixteen
same,"time to adverse effects (nausea and vomiting, dizziness, blurred vision, diaphoresis)","[2]; intranasal spray, first patient, after inadvertently increased dose",five
same,men with MED in whom erections were caused,[3],72%
same,failures with apomorphine,[4]; [16],30%
same,successes (score of no less than 16 on both neutral and erotic video segments),[4]; [16],70%
same,adverse effects,[4]; [17],Adverse effects were reported at both dose levels
same,erectile response,[4]; [17],produce erectile responses
same,longest duration of side effects,[4]; [17],30 to 40 min
same,onset of adverse effects,[4]; [17],ten to fifteen
same,yawns per session,"[4]; liquid sublingual 10 mg and 20 mg, each patient",two to five
same,erectile response,"[4]; liquid sublingual 10 mg and 20 mg, listed as Apomorphine",effective in inducing erectile episodes without increasing libido
same,patients successful with apomorphine among those who had failed a trial of yohimbine HCl,"[4]; of group of eight, liquid sublingual 10 mg and 20 mg",6
same,"patients developing nausea, diaphoresis, dizziness, blurred vision, decrease in blood pressure and heart rate","[4]; of ten evaluable, liquid sublingual 10 mg and 20 mg",eight
same,plasma concentration compared with previous reports (Table XVI),[5],produced a lower plasma concentration
same,Vd (SS),[5]; 4 mg,1.836 mL
same,Vd (beta),[5]; 4 mg,4.076 mL
same,Vd (SS),[5]; 8 mg,46.30 mL
same,Vd (beta),[5]; 8 mg,69.09 mL
same,"active treatment compared with placebo, mean erectile function","[6]; 3 mg and 4 mg, regardless of stimulus background",more effective than placebo
same,Mean (SE) erectile function,"[6]; Erotic stimulus, 3 mg",18.75 (2.51)
same,Percent (SE) successful erectile function (score at least 16),"[6]; Erotic stimulus, 3 mg",66.67 (13.61) Percent
same,Mean (SE) erectile function,"[6]; Erotic stimulus, 4 mg",19.83 (2.67)
same,Percent (SE) successful erectile function (score at least 16),"[6]; Erotic stimulus, 4 mg",66.67 (13.61) Percent
same,Mean (SE) erectile function,"[6]; Neutral stimulus, 3 mg",11.83 (2.68)
same,Percent (SE) successful erectile function (score at least 16),"[6]; Neutral stimulus, 3 mg",50.00 (14.43) Percent
same,Mean (SE) erectile function,"[6]; Neutral stimulus, 4 mg",13.50 (2.61)
same,Percent (SE) successful erectile function (score at least 16),"[6]; Neutral stimulus, 4 mg",50.00 (14.43) Percent
same,number of yawns,"[6]; all doses 3, 4, 5 mg",one or two
same,"domestic use, patient reports","[6]; eight successful patients, one to four months",good erectile activity and no side effects
same,patients successfully treated among those who had failed a trial of yohimbine HCl,[6]; of group of seven,four
same,failures with apomorphine,[6]; [18],33%
same,patients successful with apomorphine,[6]; [18],67%
same,cardiovascular and other adverse events,"[7]; 4, 6, 8 mg sublingual, with bradycardia, dizziness, syncope, pallor",Hypotension was reported as an adverse event in some subjects
same,incidence of vomiting,[7]; all administered doses,less than 3%
same,nausea cases considered severe,[7]; all administered doses,two
same,overall incidence of nausea,"[7]; all administered doses (4, 6, 8 mg sublingual)",less than 13 % of the subjects
same,changes in serum chemistry values and vital signs,[7]; except one subject with abnormal liver function of unknown origin,no clinically significant changes
same,Positive Responses %,[8]; [19],0%
same,Positive Responses No.,[8]; [19],0
same,Nausea %,"[8]; 3 mg tablet, 5 patients",0%
same,Nausea No.,"[8]; 3 mg tablet, 5 patients",0
same,Vomiting %,"[8]; 3 mg tablet, 5 patients",0%
same,Vomiting No.,"[8]; 3 mg tablet, 5 patients",0
same,Positive Responses %,[8]; [20],40%
same,Positive Responses No.,[8]; [20],2
same,Nausea %,"[8]; 4 mg tablet, 5 patients",20%
same,Nausea No.,"[8]; 4 mg tablet, 5 patients",1
same,Vomiting %,"[8]; 4 mg tablet, 5 patients",20%
same,Vomiting No.,"[8]; 4 mg tablet, 5 patients",1
same,Positive Responses %,[8]; [21],50%
same,Positive Responses No.,[8]; [21],5
same,Nausea %,"[8]; 5 mg tablet, 10 patients",20%
same,Nausea No.,"[8]; 5 mg tablet, 10 patients",2
same,Vomiting %,"[8]; 5 mg tablet, 10 patients",10%
same,Vomiting No.,"[8]; 5 mg tablet, 10 patients",1
same,Positive Responses %,[8]; [22],70%
same,Positive Responses No.,[8]; [22],7
same,Nausea %,"[8]; 6 mg tablet, 10 patients",20%
same,Nausea No.,"[8]; 6 mg tablet, 10 patients",2
same,Vomiting %,"[8]; 6 mg tablet, 10 patients",20%
same,Vomiting No.,"[8]; 6 mg tablet, 10 patients",2
same,Positive Responses %,[8]; [23],70%
same,Positive Responses No.,[8]; [23],7
same,Nausea %,"[8]; 7 mg tablet, 10 patients",20%
same,Nausea No.,"[8]; 7 mg tablet, 10 patients",2
same,Vomiting %,"[8]; 7 mg tablet, 10 patients",20%
same,Vomiting No.,"[8]; 7 mg tablet, 10 patients",2
same,Positive Responses %,[8]; [24],70%
same,Positive Responses No.,[8]; [24],7
same,Nausea %,"[8]; 8 mg tablet, 10 patients",30%
same,Nausea No.,"[8]; 8 mg tablet, 10 patients",3
same,Vomiting %,"[8]; 8 mg tablet, 10 patients",30%
same,Vomiting No.,"[8]; 8 mg tablet, 10 patients",3
same,Positive Responses %,[8]; [25],80%
same,Positive Responses No.,[8]; [25],8
same,Nausea %,"[8]; 10 mg tablet, 10 patients",40%
same,Nausea No.,"[8]; 10 mg tablet, 10 patients",4
same,Vomiting %,"[8]; 10 mg tablet, 10 patients",40%
same,Vomiting No.,"[8]; 10 mg tablet, 10 patients",4
same,Ke,"IV Administration, mean (Table XII)",0.0237 min⁻¹
same,Ke,"IV administration 1 mg, mean, n = 7",0.0237 min⁻¹
same,Vd,"male, human, in vivo, 0.114 mg/kg",2.07 L/kg
same,Ke,"sublingual 4 mg dose, individual subjects #1, #3, #6, #7",0.0060 min⁻¹
same,Ke,"sublingual 8 mg Dose, mean (Table XII)",0.0056 min⁻¹
same,Ke,"sublingual administration 8 mg dose, mean, n = 4",0.0056 min⁻¹
